Assay results as given in PubChem BioAssay (NCI).
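Method: 48-hour compound exposure of cells in 96-well plates, five concentrations, linear interpolation of endpoints. GI50 = concentration required for 50% inhibition of growth. The concentration for full growth arrest is given as TGI.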

Columns and labels:
Test in all cases: NCI tumour cell line growth inhibition, 48 h
MCF7 breast = system: MCF7 breast
NCI-H522 lung = system: NCI-H522 lung
TK-10 renal = system: TK-10 renal
HS 578T breast = system: HS 578T breast
UO-31 renal = system: UO-31 renal
MOLT-4 leukemia = system: MOLT-4 leukemia
MDA-MB-435 = system: MDA-MB-435
DU-145 prostate = system: DU-145 prostate
RXF 393 renal = system: RXF 393 renal
SF-295 CNS = system: SF-295 CNS
NCI-H23 lung = system: NCI-H23 lung
MDA-MB-231 breast = system: MDA-MB-231 breast
OVCAR-4 ovarian = system: OVCAR-4 ovarian
HCT-116 colon = system: HCT-116 colon
SF-268 CNS = system: SF-268 CNS
SN12C renal = system: SN12C renal
HCT-15 colon = system: HCT-15 colon
IGROV1 ovarian = system: IGROV1 ovarian
NCI-H460 lung = system: NCI-H460 lung
A498 renal = system: A498 renal
K-562 leukemia = system: K-562 leukemia
U251 CNS = system: U251 CNS
UACC-257 melanoma = system: UACC-257 melanoma
NCI-H226 lung = system: NCI-H226 lung
SW-620 colon = system: SW-620 colon
SK-MEL-2 melanoma = system: SK-MEL-2 melanoma
MALME-3M melanoma = system: MALME-3M melanoma
HL-60(TB) leukemia = system: HL-60(TB) leukemia
OVCAR-3 ovarian = system: OVCAR-3 ovarian
RPMI-8226 leukemia = system: RPMI-8226 leukemia
T-47D breast = system: T-47D breast
OVCAR-8 ovarian = system: OVCAR-8 ovarian
SNB-75 CNS = system: SNB-75 CNS
BT-549 breast = system: BT-549 breast
LOX IMVI melanoma = system: LOX IMVI melanoma
HOP-62 NSCLC = system: HOP-62 NSCLC
HCC-2998 colon = system: HCC-2998 colon
CCRF-CEM leukemia = system: CCRF-CEM leukemia
PC-3 prostate = system: PC-3 prostate
SF-539 CNS = system: SF-539 CNS
HT29 colon = system: HT29 colon
SNB-19 CNS = system: SNB-19 CNS
786-0 renal = system: 786-0 renal
HOP-92 NSCLC = system: HOP-92 NSCLC
OVCAR-5 ovarian = system: OVCAR-5 ovarian
COLO 205 colon = system: COLO 205 colon
CAKI-1 renal = system: CAKI-1 renal
ACHN renal = system: ACHN renal
SK-MEL-28 melanoma = system: SK-MEL-28 melanoma
KM12 colon = system: KM12 colon
SK-MEL-5 melanoma = system: SK-MEL-5 melanoma
NCI/ADR-RES ovarian = system: NCI/ADR-RES ovarian
SK-OV-3 ovarian = system: SK-OV-3 ovarian
A549 NSCLC = system: A549 NSCLC
UACC-62 melanoma = system: UACC-62 melanoma
SR leukemia = system: SR leukemia

For `O=c1c2c([nH]c3ccccc13)CCCC2`, the GI50 (MCF7 breast) was > 100 µM, the TGI (MCF7 breast) was > 100 µM and the GI50 (NCI-H522 lung) was > 100 µM. The TGI (NCI-H522 lung) was > 100 µM, the GI50 (TK-10 renal) was > 100 µM and the TGI (TK-10 renal) was > 100 µM. The GI50 (HS 578T breast) was > 100 µM, the TGI (HS 578T breast) was > 100 µM and the GI50 (UO-31 renal) was 49.7 µM. For the same compound, the TGI (UO-31 renal) was > 100 µM, the GI50 (MOLT-4 leukemia) was > 100 µM and the TGI (MOLT-4 leukemia) was > 100 µM. The GI50 (MDA-MB-435) was > 100 µM, the TGI (MDA-MB-435) was > 100 µM and the GI50 (DU-145 prostate) was > 100 µM. For the same compound, the TGI (DU-145 prostate) was > 100 µM, the GI50 (RXF 393 renal) was > 100 µM and the TGI (RXF 393 renal) was > 100 µM. For the same compound, the GI50 (SF-295 CNS) was > 100 µM, the TGI (SF-295 CNS) was > 100 µM and the GI50 (NCI-H23 lung) was > 100 µM. For the same compound, the TGI (NCI-H23 lung) was > 100 µM, the GI50 (MDA-MB-231 breast) was > 100 µM and the TGI (MDA-MB-231 breast) was > 100 µM. The GI50 (OVCAR-4 ovarian) was 37 µM, the TGI (OVCAR-4 ovarian) was > 100 µM and the GI50 (HCT-116 colon) was > 100 µM. The TGI (HCT-116 colon) was > 100 µM, the GI50 (SF-268 CNS) was > 100 µM and the TGI (SF-268 CNS) was > 100 µM. For the same compound, the GI50 (SN12C renal) was > 100 µM, the TGI (SN12C renal) was > 100 µM and the GI50 (HCT-15 colon) was > 100 µM. The TGI (HCT-15 colon) was > 100 µM, the GI50 (IGROV1 ovarian) was > 100 µM and the TGI (IGROV1 ovarian) was > 100 µM. The GI50 (NCI-H460 lung) was > 100 µM, the TGI (NCI-H460 lung) was > 100 µM and the GI50 (A498 renal) was 1.74 µM. The TGI (A498 renal) was 55.8 µM, the GI50 (K-562 leukemia) was > 100 µM and the TGI (K-562 leukemia) was > 100 µM. The GI50 (U251 CNS) was > 100 µM, the TGI (U251 CNS) was > 100 µM and the GI50 (UACC-257 melanoma) was > 100 µM. For the same compound, the TGI (UACC-257 melanoma) was > 100 µM, the GI50 (NCI-H226 lung) was > 100 µM and the TGI (NCI-H226 lung) was > 100 µM. For the same compound, the GI50 (SW-620 colon) was > 100 µM, the TGI (SW-620 colon) was > 100 µM and the GI50 (SK-MEL-2 melanoma) was 60.4 µM. The TGI (SK-MEL-2 melanoma) was > 100 µM, the GI50 (MALME-3M melanoma) was > 100 µM and the TGI (MALME-3M melanoma) was > 100 µM. For the same compound, the GI50 (HL-60(TB) leukemia) was > 100 µM, the TGI (HL-60(TB) leukemia) was > 100 µM and the GI50 (OVCAR-3 ovarian) was > 100 µM. For the same compound, the TGI (OVCAR-3 ovarian) was > 100 µM, the GI50 (RPMI-8226 leukemia) was 81.5 µM and the TGI (RPMI-8226 leukemia) was > 100 µM. For the same compound, the GI50 (T-47D breast) was > 100 µM, the TGI (T-47D breast) was > 100 µM and the GI50 (OVCAR-8 ovarian) was > 100 µM. For the same compound, the TGI (OVCAR-8 ovarian) was > 100 µM, the GI50 (SNB-75 CNS) was > 100 µM and the TGI (SNB-75 CNS) was > 100 µM. For the same compound, the GI50 (BT-549 breast) was > 100 µM, the TGI (BT-549 breast) was > 100 µM and the GI50 (LOX IMVI melanoma) was > 100 µM. The TGI (LOX IMVI melanoma) was > 100 µM, the GI50 (HOP-62 NSCLC) was > 100 µM and the TGI (HOP-62 NSCLC) was > 100 µM. For the same compound, the GI50 (HCC-2998 colon) was > 100 µM, the TGI (HCC-2998 colon) was > 100 µM and the GI50 (CCRF-CEM leukemia) was > 100 µM. For the same compound, the TGI (CCRF-CEM leukemia) was > 100 µM, the GI50 (PC-3 prostate) was > 100 µM and the TGI (PC-3 prostate) was > 100 µM. The GI50 (SF-539 CNS) was > 100 µM, the TGI (SF-539 CNS) was > 100 µM and the GI50 (HT29 colon) was > 100 µM. The TGI (HT29 colon) was > 100 µM, the GI50 (SNB-19 CNS) was > 100 µM and the TGI (SNB-19 CNS) was > 100 µM. For the same compound, the GI50 (786-0 renal) was > 100 µM, the TGI (786-0 renal) was > 100 µM and the GI50 (HOP-92 NSCLC) was 78.4 µM. For the same compound, the TGI (HOP-92 NSCLC) was > 100 µM, the GI50 (OVCAR-5 ovarian) was > 100 µM and the TGI (OVCAR-5 ovarian) was > 100 µM. For the same compound, the GI50 (COLO 205 colon) was > 100 µM, the TGI (COLO 205 colon) was > 100 µM and the GI50 (CAKI-1 renal) was > 100 µM. The TGI (CAKI-1 renal) was > 100 µM, the GI50 (ACHN renal) was > 100 µM and the TGI (ACHN renal) was > 100 µM. For the same compound, the GI50 (SK-MEL-28 melanoma) was > 100 µM, the TGI (SK-MEL-28 melanoma) was > 100 µM and the GI50 (KM12 colon) was > 100 µM. The TGI (KM12 colon) was > 100 µM, the GI50 (SK-MEL-5 melanoma) was 45.3 µM and the TGI (SK-MEL-5 melanoma) was > 100 µM. For the same compound, the GI50 (NCI/ADR-RES ovarian) was > 100 µM, the TGI (NCI/ADR-RES ovarian) was > 100 µM and the GI50 (SK-OV-3 ovarian) was > 100 µM. The TGI (SK-OV-3 ovarian) was > 100 µM, the GI50 (A549 NSCLC) was > 100 µM and the TGI (A549 NSCLC) was > 100 µM. For the same compound, the GI50 (UACC-62 melanoma) was > 100 µM, the TGI (UACC-62 melanoma) was > 100 µM and the GI50 (SR leukemia) was > 100 µM. For the same compound, the TGI (SR leukemia) was > 100 µM.
